This note sets out measurements from US11008325B2, “Inhibitors of cancer invasion, attachment, and/or metastasis” (VIRGINIA COMMONWEALTH UNIVERSITY, priority 2016, dated 2021).

The subject of one data set is B16 cells. The data set is described as follows: B16 experimental lung metastasis. It is filed as in vivo, C57BL/6 mice. The note with it: repeated treatment I.P., 30 and 50 mg/kg, 6 injections. The method, then:
FIG. 57. PDZ1in (113B7) treatment results in marked reduction of B16 experimental lung metastases. C57BU6 mice were inoculated I.V. with B16 cells ([…]) to generate experimental lung metastases. One day after I.V. injection, mice received 30 and 50 mg/kg b.w. PDZ1i I.P. 3× a week for the first two weeks (total 6 injections). After 21 days, mice were sacrificed and lungs were collected, fixed with formalin and examined for nodules. Representative lungs with tumor metastases are shown.
Preliminary studies were performed to determine if administering PDZ1ln (113B7) would affect experimental metastasis. B16, a highly aggressive metastatic mouse melanoma, was intravenously injected resulting in lung nodules within 3 weeks. […] This experiment confirms that treatment with PDZ1in targeting MDA-9/Syntenin can directly prevent formation of lung metastases in vivo.

The target in data set [1] is MDA-9/Syntenin PDZ2 only domain (Homo sapiens, UniProt O00560). The data set is described as follows: NMR [15N,1H] HSQC binding, counter domain. The note with it: up to 100 μM compound, 20 μM protein. As to the method: FIG. 52. Left panel, Docked structure of compound 113B7 on the surface of MDA-9/Syntenin. The docked structure is supported by NMR chemical shift mapping data. The titration (see later in FIG. 55 for chemical shift mapping and titration) allows for the calculation of an upper limit for the dissociation constant of the complex, Kd<10 μM. […] The [^15N,^1FI]-HSQC spectra of MDA-9/Syntenin PDZ2 only domain are reported in the top right panel (apo at 20 μM; in presence of 100 μM 113B7). In the bottom right panel can be seen the spectra of the PDZ domain from X11/mint scaffold protein (33% identity with PDZ1) are reported in absence (20 μM protein) and in presence of 100 μM 113B7.
Chain of MDA-9/Syntenin PDZ2 only domain (O00560 198-273 limits assumed): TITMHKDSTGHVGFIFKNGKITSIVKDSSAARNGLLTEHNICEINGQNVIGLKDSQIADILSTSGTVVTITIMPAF
Based on these studies and NMR guided initial docking calculations, >50 bi-dentate compounds were synthesized and tested, leading to compound 113B7 (FIG. 52). […] Moreover, as a way to further address specificity of our ligands, we also tested the most promising compounds against two closely related domains to the PDZs of MDA-9/Syntenin, such as the PDZ tandem protein Harmonin (36% identity to PDZ2 of MDA-9/Syntenin and 31% to PDZ1 of MDA-9/syntenin) or PDZ domain from X11/mint scaffold protein (33% identity with PDZ1), and no significant binding to these counter-screen proteins was observed (FIG. 52).

Another data set concerns cancer cells. The data set is described as follows: toxicity to cultured cells. It is filed as cell-based, human.
The test system of a further data set is U1242 cells. In words: Proteome Profiler Human Protease Array of conditioned media after radiation. The note with it: 50 μM PDZ1i 2 hrs prior to radiation. The data set is classed as cell-based. As to the method: FIGS. 10A-10L, PDZ1i inhibits key invasion proteins. U1242 cells were treated with either DMSO or 50 μM PDZ1i 2 hrs prior to radiation in serum-free media. After 48 hrs, media was collected analyzed via the Proteome Profiler Human Protease Array Kit (R&D Systems). Relative protein amounts of the indicated proteins were quantified via ImageJ. FIG. 10A, MMP1; FIG. 10B, MMP2; FIG. 10C, MMP3; FIG. 10D, MMP8; FIG. 10E, MMP9; FIG. 10F, MMP13; FIG. 10G. Cathepsin A; FIG. 10H, Cathepsin B; FIG. 10I, Cathepsin C; FIG. 10J, Cathepsin S; FIG. 10K, Cathepsin V; FIG. 10L, ASAM9.
Radiation can enhance the release of important enzymes, including those involved in invasion such as the matrix metalloproteinase family (MMP). We therefore determined if PDZ1i could affect the secretion of invasion-related proteins following radiation therapy. U1242 cells were treated for 2 hours prior to radiation therapy, and their media collected after 48 hours. […]
CM was harvested from an overnight culture of plated cells in serum-free DMEM+F12 media, filtered with […] filters and further concentrated 10-fold on an Amicon Ultra centrifugal filter—3K (Millipore, Billerica, Mass.). Protein levels were analyzed via the Proteome Profiler Human Protease Array Kit (R&D Systems, Minneapolis, Minn.). Relative quantification was performed by densitometry evaluation. X-ray films were scanned and analyzed with ImageJ software (NIH).

Entries after “also recorded” stand apart in the source; their conditions may differ.

On to `Cc1cc(NC(=O)c2nc3[nH]c4c(c(=O)n3n2)CCC4)c(C)cc1NC(=O)CCc1nnc(-c2ccccc2)o1` [113B7, N-(2,5-dimethyl-4-(3-(5-phenyl-1,3,4-oxadiazol-2-yl)propanamido)phenyl)-8-oxo-5,6,7,8-tetrahydro-4H-cyclopenta[d][1,2,4]triazolo[1,5-a]pyrimidine-2-carboxamide], for which the “number of lung nodules” value with B16 cells is given as “significantly reduced the number of lung nodules”. Also, the “binding to PDZ2 domain” value in data set [1] is given as “does not bind appreciably; also recorded: does not appreciably bind; also recorded: do not significantly bind”. The “toxicity to primary normal cells and cancer cells” value with cancer cells is “non-toxic”. Besides, the toxicity result in the data set with cancer cells (tested at 50 μM) is “did not show any toxicity”. In the data set on cancer cells (tested up to 20 μM), the cytotoxicity result was “did not show any significant cytotoxicity”. Also, the “radiation gains in Cathepsin family members and ADAM9” value with U1242 cells is reported as “eliminated these gains”. Besides, the “secreted MMP levels (MMP2, MMP9) after radiation” value in the data set with U1242 cells (media after 48 hrs) is listed as “reduced the levels”.
